Experimental data as given in patent EP0650958A1, “Hydrazones of indane-triones and their application in therapy” (LABORATOIRE INNOTHERA Société Anonyme, priority 1993, dated 1995).
Counter-ions that a name gives are not always drawn.

Tests used:
[1] = system: hyperperméabilité vasculaire induite par le zymosan; assay: Vascular hyperpermeability induced by zymosan (extravasation of albumin or Evans blue); assay type: in vivo; conditions: oral administration of 1-20 mg/kg
Excerpt: (§1) Pour l'étude in vivo, ils sont administrés par voie intra-veineuse sous forme de solution aqueuse pure, par voie intrapéritonéale sous forme de solution aqueuse contenant ou non du DMSO ou par voie orale en solution ou en suspension dans la carboxyméthylcellulose ou dans une solution aqueuse composée contenant du Tween^(R) et dans certains cas du DMSO (diméthylsulfoxyde).
La perméabilité vasculaire est étudiée in vivo et in vitro par la mesure de l'extravasation d'albumine ou de colorant liant l'albumine (Bleu Evans). In vivo, l'hyperperméabilité est induite par l'injection d'une solution d'histamine, de bradykinine ou de zymosan. Les modèles in vitro permettent de réaliser des hyperpressions (sur un territoire vasculaire isolé) et/ou des réactions vasculaires inflammatoires.
A titre illustratif, les composés des exemples 1, 3, 6 et 9 inhibent l'hyperperméabilité vasculaire induite par le zymosan après administration orale de 1-20 mg/kg.

veines saphènes de lapin = assay: Contraction of isolated rabbit saphenous vein rings produced by KCl (depolarisation); conditions: for augmentent les contractions des veines saphènes de lapin produites par le KCl: KCl 40 mM, compounds 10 nM à 30 mM; for EC50: increase of contractions produced by KCl 40 mM, read-out: DE₅₀
Excerpt: (§2) Pour l'étude in vitro, les composés sont solubilisés en solution aqueuse pure ou contenant du DMSO ou de l'alcool.
L'effet contractile est mesuré in vitro : • par la force de contraction développée par des anneaux vasculaires quiescents ou stimulés (soit électriquement soit par des agents physiologiques) et maintenus dans des conditions isométriques, • par la pression développée par des réseaux vasculaires perfusés à débit constant.
Les composés de l'invention et leurs sels éventuels augmentent la contraction des veines saphènes animales produite par la noradrénaline et la dépolarisation (solution hyperpotassique) sans affecter, dans la majorité des cas, les réponses contractiles artérielles. A titre illustratif, les composés des exemples 2, 3, 4, 7, et 9 (10 nM à 30 mM) augmentent de plus de 40 % (DE₅₀ ± 0,3 microM) les contractions des veines saphènes de lapin produites par le KCl (40 mM).

pleurésie chez le rat = assay: Carrageenan-induced pleurisy (oedema and leukocyte migration); assay type: in vivo; conditions: 5 mg/kg i.p. given twice, 6 hours after carrageenan injection into the pleural cavity
Excerpt: as §1
L'activité antiinflammatoire est démontrée par la mesure de l'inhibition de l'oedème et de la migration leucocytaire après induction d'une pleurésie chez le rat par injection de carragénine dans la cavité pleurale (Almeida et col., J. Pharmacol. Exp. Therap., 1980, 214 : 74).
Le composé des exemples 3 et 4 administrés deux fois en i.p. à la dose de 5 mg/kg inhibent l'oedème et la migration leucocytaire dans la cavité pleurale, 6 heures après injection de carragénine dans le modèle de la pleurésie chez le rat.

[2] = Free radical scavenging with DPPH as stable free radical; assay type: physicochemical; conditions: DPPH model, in vitro
Excerpt: as §2
L'effet "piégeur de radicaux libres" global est étudié in vitro par un modèle utilisant le 1,1-diphényl-2-picrylhydrazyl (DPPH) comme radical libre stable, méthode dérivée de celle décrite par Lamaison et col., Plantes Médic. et Phytothérapie, XXII, 1988, 231-234.

Row | SMILES | hyperperméabilité vasculaire induite par le zymosan [1] | augmentent les contractions des veines saphènes de lapin produites par le KCl (veines saphènes de lapin) | EC50 (veines saphènes de lapin) | migration leucocytaire dans la cavité pleurale (pleurésie chez le rat) | oedème (pleurésie chez le rat) | effet antiradicalaire [2]
1 | O=C(NN=c1c(=O)c2ccccc2c1=O)n1cccc1 [exemple 1, 2.3-Dihydro-1.3-dioxo-2-(pyrrol-1-yl-carbonylhydrazono)-1H-indene] | inhibent | – | – | – | – | –
2 | O=C(NN=c1c(=O)c2ccccc2c1=O)c1cccnc1 [exemple 2, 2.3-Dihydro-1.3-dioxo-2-[(3-pyridyl)carbonylhydrazono]-1H-indene, chlorhydrate] | – | > 40% | ~300 nM | – | – | –
3 | Nc1ccc(C(=O)NN=c2c(=O)c3ccccc3c2=O)cc1 [exemple 3, 2-(4-Aminophenylcarbonylhydrazono)-2.3-dihydro-1.3-dioxo-1H-indene, chlorhydrate] | inhibent | > 40% | ~300 nM | inhibent | inhibent | –
4 | O=C(NN=c1c(=O)c2ccccc2c1=O)c1cccnc1 [exemple 6, 2.3-Dihydro-1.3-dioxo-2-[(3-pyridyl)carbonylhydrazono]-1H-indene, maleate] | inhibent | – | – | – | – | présentent un effet antiradicalaire
